Each structure is given as a SMILES string. Square brackets hold non-standard residues; d marks the D form. Peptide text beside a SMILES is read from it.

A short description of the data set: Pharmacokinetics after a single IV dose in rats. The note with it: male, Sprague-Dawley, rat, in vivo, equivalent protein mass of 1.0 mg/kg. The text has this: The weight range of the animals was 311-346 grams. All animals were food fasted overnight. […] The predose sample was collected from the JVC.
Following the last collection point, the animals were euthanized.

Consider `CC[C@H](C)[C@H](NC(=O)[C@H](C)NC(=O)[C@H](CCCCN)NC(=O)[C@H](CC(C)C)NC(=O)[C@H](C)NC(=O)[C@@H](NC(=O)[C@H](Cc1c[nH]cn1)NC(=O)[C@H](CC(C)C)NC(=O)[C@@H](NC(=O)[C@@H](NC(=O)[C@H](CCCCN)NC(=O)[C@@H](C)NC(=O)[C@H](C)NC(=O)[C@H](CO)NC(=O)[C@H](CCCCN)NC(=O)[C@H](Cc1ccccc1)NC(=O)[C@@H](NC(=O)[C@H](CCCCN)NC(=O)[C@H](CC(C)C)NC(=O)[C@H](Cc1ccccc1)NC(=O)[C@H](CO)NC(=O)[C@H](CCCCN)NC(=O)[C@H](Cc1c[nH]c2ccccc12)NC(=O)[C@H](CCCCN)NC(C)=O)[C@@H](C)O)[C@@H](C)O)C(C)C)[C@@H](C)O)C(=O)N[C@@H](CO)C(=O)N[C@@H](CO)C(N)=O` [V681 (V13AD)] (Ac-KWKSFLKTFKSA[dA]KTVLHTALKAISS-NH2), for which the total exposure AUC(0-inf) was determined as 7210 ± 1430 ng·h/mL, the Cmax was determined as 16500 ± 9670 ng/mL, the mean residence time (MRT) stood at 19.8 ± 4.8 min and the clearance was 2.37 mL/min/kg. Also, the half-life was 36.6 ± 23.4 min. In addition, where the note is “read-out: Vss”, the Vd turned out to be 0.0477 ± 0.018 L/kg.

For orientation: AUC(0-inf) means total exposure, with the tail of the curve extrapolated. For orientation: Cmax means the maximum level reached in the sampled fluid or tissue. One may read the MRT as a mean duration of stay, worked out from the concentration-time curve. What is called clearance is the rate of elimination divided by the concentration. The term half-life denotes the time needed for the level to fall by half in the phase considered.
